The results in this text go back to ChEMBL document CHEMBL1158255, “New polyoxypregnane ester derivatives from Leptadenia hastata” (1996).

What all share (assay type): functional
Assay [1] deals with Raji. Briefly: Cell cycle arrest in human Raji cells assessed as accumulation in S phase at 1 ug/mL.
Assay [2] relates to Raji. Briefly: Antitumor activity against human Raji cells assessed as DNA synthesis at 0.5 ug/mL by [3H]thymidine incorporation assay relative to control. For orientation: Dividing cells build labelled thymidine or BrdU into new DNA.
Assay [3] relates to Raji. Briefly: Cell cycle arrest in human Raji cells assessed as accumulation in S phase at 0.5 ug/mL.
Assay [4] has as its system Raji. Briefly: Cell cycle arrest in human Raji cells assessed as accumulation in S phase at 0.1 ug/mL.
Assay [5] concerns Raji. Briefly: Antitumor activity against human Raji cells assessed as DNA synthesis at 1 ug/mL by [3H]thymidine incorporation assay relative to control.
The subject of assay [6] is Raji. Briefly: Antitumor activity against human Raji cells assessed as DNA synthesis at 0.1 ug/mL by [3H]thymidine incorporation assay relative to control.

As to `CO[C@H]1[C@@H](O)[C@H](O[C@H]2[C@@H](OC)C[C@H](O[C@H]3[C@@H](OC)C[C@H](O[C@H]4[C@@H](OC)C[C@H](O[C@H]5CC[C@@]6(C)C(=CC[C@]7(O)[C@@H]6C[C@@H](OC(=O)/C=C/c6ccccc6)[C@@]6(C)[C@]7(O)CC[C@@]6(O)C(C)=O)C5)O[C@@H]4C)O[C@@H]3C)O[C@@H]2C)O[C@H](C)[C@H]1O[C@@H]1O[C@H](CO)[C@@H](O)[C@H](O)[C@H]1O`, the Activity in the assay with Raji [1] came out at 4%; with Raji [2], 21%; in the assay on Raji [3] it was 11%; in the assay on Raji [4], 22%; in the assay with Raji [5], 14%; in the assay on Raji [6], 41%.

Consider `CO[C@H]1[C@@H](O)[C@H](O[C@H]2[C@@H](OC)C[C@H](O[C@H]3[C@@H](OC)C[C@H](O[C@H]4[C@@H](OC)C[C@H](O[C@H]5CC[C@@]6(C)C(=CC[C@]7(O)[C@@H]6C[C@@H](OC(=O)c6ccccc6)[C@@]6(C)[C@]7(O)CC[C@@]6(O)[C@H](C)OC(=O)/C=C/c6ccccc6)C5)O[C@@H]4C)O[C@@H]3C)O[C@@H]2C)O[C@H](C)[C@H]1O[C@@H]1O[C@H](CO)[C@@H](O)[C@H](O)[C@H]1O`, for which the Activity in the assay with Raji [1] turned out to be 4%; with Raji [2] it was 14%; in the assay on Raji [3], 6%; in the assay with Raji [4], 4%; in the assay on Raji [5] it was 14%; in the assay with Raji [6], 15%.

Turning to `CO[C@@H]1[C@@H](O)[C@H](O[C@H]2[C@@H](OC)C[C@H](O[C@H]3[C@@H](OC)C[C@H](O[C@H]4[C@@H](OC)C[C@H](O[C@H]5CC[C@@]6(C)C(=CC[C@]7(O)[C@@H]6C[C@@H](OC(=O)c6ccccc6)[C@@]6(C)[C@]7(O)CC[C@@]6(O)[C@H](C)OC(=O)/C=C/c6ccccc6)C5)O[C@@H]4C)O[C@@H]3C)O[C@@H]2C)O[C@H](C)[C@H]1O[C@@H]1O[C@H](CO)[C@@H](O)[C@H](O)[C@H]1O`, the Activity was 5% in the assay on Raji [1]; 14% with Raji [2]; 4% in the assay with Raji [3]; 5% in the assay on Raji [4]; 16% with Raji [5]; 13% in the assay with Raji [6].

On to `COC1C[C@H](O[C@H]2[C@@H](OC)C[C@H](O[C@H]3[C@@H](OC)C[C@H](O[C@H]4CC[C@@]5(C)C(=CC[C@]6(O)[C@@H]5C[C@@H](OC(C)=O)[C@@]5(C)[C@]6(O)CC[C@@]5(O)C(C)=O)C4)O[C@@H]3C)O[C@@H]2C)O[C@H](C)[C@H]1O[C@@H]1O[C@H](C)[C@@H](O[C@@H]2O[C@H](CO)[C@@H](O)[C@H](O)[C@H]2O)[C@@H](OC)[C@H]1O` (single isomer, unassigned), for which the Activity came to 26% in the assay on Raji [1]; 87% with Raji [2]; 28% with Raji [3]; 30% in the assay on Raji [4]; 69% in the assay on Raji [5]; 98% in the assay on Raji [6].

Turning to `COC1C[C@H](O[C@H]2[C@@H](OC)C[C@H](O[C@H]3[C@@H](OC)C[C@H](O[C@H]4CC[C@@]5(C)C(=CC[C@]6(O)[C@@H]5C[C@@H](OC(C)=O)[C@@]5(C)[C@]6(O)CC[C@@]5(O)[C@H](C)O)C4)O[C@@H]3C)O[C@@H]2C)O[C@H](C)[C@H]1O[C@@H]1O[C@H](C)[C@@H](O[C@@H]2O[C@H](CO)[C@@H](O)[C@H](O)[C@H]2O)[C@@H](OC)[C@H]1O` (single isomer, unassigned), the Activity in the assay on Raji [1] came out at 28%; with Raji [2], 83%; with Raji [3], 30%; in the assay with Raji [4], 32%; with Raji [5] it was 69%; in the assay with Raji [6], 98%.

As to `COC1C[C@H](O[C@@H]2[C@@H](C)O[C@@H](O[C@H]3[C@@H](OC)C[C@H](O[C@H]4CC[C@@]5(C)C(=CC[C@]6(O)[C@@H]5C[C@@H](OC(=O)/C=C/c5ccccc5)[C@@]5(C)[C@]6(O)CC[C@@]5(O)[C@H](C)OC(=O)c5ccccc5)C4)O[C@@H]3C)C[C@H]2OC)O[C@H](C)[C@H]1O[C@@H]1O[C@H](C)[C@@H](O[C@@H]2O[C@H](CO)[C@@H](O)[C@H](O)[C@H]2O)[C@@H](OC)[C@H]1O` (single isomer, unassigned), the Activity in the assay with Raji [1] is reported as 3%; with Raji [2], 16%; with Raji [3] it was 5%; in the assay on Raji [4] it was 6%; in the assay on Raji [5] it was 15%; in the assay with Raji [6] it was 16%.

Regarding `COC1C[C@H](O[C@@H]2[C@@H](C)O[C@@H](O[C@H]3[C@@H](OC)C[C@H](O[C@H]4CC[C@@]5(C)C(=CC[C@]6(O)[C@@H]5C[C@@H](OC(C)=O)[C@@]5(C)[C@]6(O)CC[C@@]5(O)[C@H](C)O)C4)O[C@@H]3C)C[C@H]2OC)O[C@H](C)[C@H]1O[C@@H]1O[C@H](C)[C@@H](O[C@@H]2O[C@H](CO)[C@@H](O)[C@H](O)[C@H]2O)[C@@H](OC)[C@H]1O` (single isomer, unassigned), the Activity in the assay on Raji [1] is recorded as 18%; in the assay with Raji [2], 89%; in the assay on Raji [3], 30%; in the assay on Raji [4], 34%; in the assay on Raji [5], 65%; in the assay with Raji [6] it was 98%.

For the molecule `COC1C[C@H](O[C@H]2[C@@H](OC)C[C@H](O[C@H]3[C@@H](OC)C[C@H](O[C@H]4CC[C@@]5(C)C(=CC[C@]6(O)[C@@H]5C[C@@H](OC(=O)/C=C/c5ccccc5)[C@@]5(C)[C@]6(O)CC[C@@]5(O)[C@H](C)O)C4)O[C@@H]3C)O[C@@H]2C)O[C@H](C)[C@H]1O[C@@H]1O[C@H](C)[C@@H](O[C@@H]2O[C@H](CO)[C@@H](O)[C@H](O)[C@H]2O)[C@@H](OC)[C@H]1O` (single isomer, unassigned), the Activity came to 10% in the assay on Raji [1]; 33% in the assay with Raji [2]; 18% in the assay with Raji [3]; 33% in the assay on Raji [4]; 16% in the assay with Raji [5]; 59% in the assay on Raji [6].
